From patent publication US11053241B2, “TYK2 inhibitors and uses thereof” (Nimbus Lakshmi, Inc., priority 2018, dated 2021)

Molecular target: human TYK2 (JH2domain-pseudokinase) (Homo sapiens (Human), UniProt P29597)
Assay: TYK2 JH2 Domain Binding Assay (KINOMEscan)
Conditions: 11-point 3-fold dilution, top concentration 30,000 nM, duplicate
Method: Binding constants for compounds of the present invention against the JH2 domain were determined by the following protocol for a KINOMEscan® assay (DiscoveRx). A fusion protein of a partial length construct of human TYK2 (JH2domain-pseudokinase) (amino acids G556 to D888 based on reference sequence NP_003322.3) and the DNA binding domain of NFkB was expressed in transiently transfected HEK293 cells. From these HEK 293 cells, extracts were prepared in M-PER extraction buffer (Pierce) in the presence of Protease Inhibitor Cocktail Complete (Roche) and Phosphatase Inhibitor Cocktail Set II (Merck) per manufacturers' instructions. The TYK2(JH2domain-pseudokinase) fusion protein was labeled with a chimeric double-stranded DNA tag containing the NFkB binding site (5′-GGGAATTCCC-3′) fused to an amplicon for qPCR readout, which was added directly to the expression extract (the final concentration of DNA-tag in the binding reaction is 0.1 nM).
Streptavidin-coated magnetic beads (Dynal M280) were treated with a biotinylated small molecule ligand for 30 minutes at room temperature to generate affinity resins for the binding assays. The liganded beads were blocked with excess biotin and washed with blocking buffer (SeaBlock (Pierce), 1% BSA, 0.05% Tween 20, 1 mM DTT) to remove unbound ligand and to reduce nonspecific binding.
The binding reaction was assembled by combining 16 μl of DNA-tagged kinase extract, 3.8 μl liganded affinity beads, and 0.18 μl test compound (PBS/0.05% Tween 20/10 mM DTT/0.1% BSA/2 μg/ml sonicated salmon sperm DNA). Extracts were used directly in binding assays without any enzyme purification steps at a ≥10,000-fold overall stock dilution (final DNA-tagged enzyme concentration <0.1 nM). Extracts were loaded with DNA-tag and diluted into the binding reaction in a two step process. First extracts were diluted 1:100 in 1× binding buffer (PBS/0.05% Tween 20/10 mM DTT/0.1% BSA/2 μg/ml sonicated salmon sperm DNA) containing 10 nM DNA-tag. This dilution was allowed to equilibrate at room temperature for 15 minutes and then subsequently diluted 1:100 in 1× binding buffer. All reactions were performed in polypropylene 384-well plates. Each was a final volume of 0.02 mL. Assays were incubated with shaking for 1 hour at room temperature. Then the beads were pelleted and washed with wash buffer (1×PBS, 0.05% Tween 20) to remove displaced kinase and test compound. The washed based were re-suspended in elution buffer (1×PBS, 0.05% Tween 20, 0.5 μM non-biotinylated affinity ligand) and incubated at room temperature with shaking for 30 minutes. The kinase concentration in the eluates was measured by qPCR. qPCR reactions were assembled by adding 2.5 μL of kinase eluate to 7.5 μL of qPCR master mix containing 0.15 μM amplicon primers and 0.15 μM amplicon probe. The qPCR protocol consisted of a 10 minute hot start at 95° C., followed by 35 cycles of 95° C. for 15 seconds, 60° C. for 1 minute.
Test compounds were prepared as 111× stocks in 100% DMSO. Kd values were determined using an 11-point 3-fold compound dilution series with three DMSO control points. All compounds for Kd measurements are distributed by acoustic transfer (non-contact dispensing) in 100% DMSO. The compounds were then diluted directly into the assays such that the final concentration of DMSO was 0.9%. The Kd values were determined using a compound top concentration of 30,000 nM. Kd measurements were performed in duplicate.
Binding constants (Kds) were calculated with a standard dose-response curve using the Hill equation: […]
The Hill Slope was set to −1. Curves were fitted using a non-linear least square fit with the Levenberg-Marquardt algorithm (Levenberg, K., A method for the solution of certain non-linear problems in least squares, Q. Appl. Math. 2, 164-168 (1944)).

Sequence of human TYK2 (JH2domain-pseudokinase) (P29597 556-888): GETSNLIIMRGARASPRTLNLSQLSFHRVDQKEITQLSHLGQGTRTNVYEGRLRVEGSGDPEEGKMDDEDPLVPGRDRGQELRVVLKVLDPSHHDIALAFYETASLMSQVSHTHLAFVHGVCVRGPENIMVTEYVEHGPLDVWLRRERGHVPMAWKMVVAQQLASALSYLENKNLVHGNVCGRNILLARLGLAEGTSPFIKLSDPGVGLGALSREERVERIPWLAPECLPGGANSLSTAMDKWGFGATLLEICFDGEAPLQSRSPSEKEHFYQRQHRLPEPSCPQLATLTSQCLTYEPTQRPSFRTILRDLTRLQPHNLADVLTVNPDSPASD

With `CNC(=O)c1cnc(NC(=O)C2CC2)c2[nH]c(-c3cccn(C4CCCOC4)c3=O)cc12` (stereo in doubt) [Compound I-55, (S)-7-(cyclopropanecarboxamido)-N-methyl-2-(2-oxo-1-(tetrahydro-2H-pyran-3-yl)-1,2-dihydropyridin-3-yl)-1H-pyrrolo[2,3-c]pyridine-4-carboxamide] as the molecule, how does the Kd read?
The Kd was 0.2 to 1 nM.

How did the Kd turn out when `CNC(=O)c1cnc(NC(=O)C2CC2)c2[nH]c(-c3cccn(C4CCCOC4)c3=O)cc12` (stereo in doubt) [Compound I-56, (R)-7-(cyclopropanecarboxamido)-N-methyl-2-(2-oxo-1-(tetrahydro-2H-pyran-3-yl)-1,2-dihydropyridin-3-yl)-1H-pyrrolo[2,3-c]pyridine-4-carboxamide] was run?
The Kd was 0.2 to 1 nM.

`CNC(=O)c1cnc(NC(=O)C2CC2)c2[nH]c(-c3cccc(N4CCC4)c3C#N)cc12` [Compound I-41, 2-(3-(azetidin-1-yl)-2-cyanophenyl)-7-(cyclopropanecarboxamido)-N-methyl-1H-pyrrolo[2,3-c]pyridine-4-carboxamide] was tested. Which Kd did it give?
The Kd was 1 to 10 nM.

`CNC(=O)c1cnc(NC(=O)C2CC2)c2[nH]c(-c3cccn(C4CCCOC4)c3=O)cc12` (stereo not drawn) [Compound I-43, 7-(cyclopropanecarboxamido)-N-methyl-2-(2-oxo-1-(tetrahydro-2H-pyran-3-yl)-1,2-dihydropyridin-3-yl)-1H-pyrrolo[2,3-c]pyridine-4-carboxamide] was tested. Which Kd did it give?
Its Kd is 0.2 to 1 nM.

For `CNC(=O)c1cnc(NC(=O)C2CC2)c2[nH]c(-c3cnccc3OC3CC3)cc12` [Compound I-44, 7-(cyclopropanecarboxamido)-2-(4-cyclopropoxypyridin-3-yl)-N-methyl-1H-pyrrolo[2,3-c]pyridine-4-carboxamide], which Kd is on record?
Its Kd is less than 0.2 nM.

Which Kd does the source give for `CNC(=O)c1cnc(NC(=O)C2CC2)c2[nH]c(-c3cccc(-c4cnn(C)c4)c3C#N)cc12` [Compound I-45, 2-(2-cyano-3-(1-methyl-1H-pyrazol-4-yl)phenyl)-7-(cyclopropane-carboxamido)-N-methyl-1H-pyrrolo[2,3-c]pyridine-4-carboxamide] here?
Its Kd is 0.2 to 1 nM.

With `CNC(=O)c1cnc(NC(=O)C2CC2)c2[nH]c(-c3ccccc3N3CCC(O)CC3)cc12` [Compound I-46, 7-(cyclopropanecarboxamido)-2-(2-(4-hydroxypiperidin-1-yl)phenyl)-N-methyl-1H-pyrrolo[2,3-c]pyridine-4-carboxamide] as the molecule, how does the Kd read?
The Kd was 0.2 to 1 nM.

Which Kd does the source give for `CNC(=O)c1cnc(NC(=O)C2CC2)c2[nH]c(-c3cccc(-n4cnc(C)n4)c3F)cc12` [Compound I-47, 7-(cyclopropanecarboxamido)-2-(2-fluoro-3-(3-methyl-1H-1,2,4-triazol-1-yl)phenyl)-N-methyl-1H-pyrrolo[2,3-c]pyridine-4-carboxamide] here?
Its Kd is less than 0.2 nM.

For `CNC(=O)c1cnc(NC(=O)C2CC2)c2[nH]c(-c3cccc(-c4nc(C)cn4C)n3)cc12` [Compound I-49, 7-(cyclopropanecarboxamido)-2-(6-(1,4-dimethyl-1H-imidazol-2-yl)pyridin-2-yl)-N-methyl-1H-pyrrolo[2,3-c]pyridine-4-carboxamide], which Kd is on record?
Its Kd is less than 0.2 nM.

Which Kd does the source give for `CNC(=O)c1cnc(NC(=O)C2CC2)c2[nH]c(-c3cccc(-c4nnn(C)n4)c3)cc12` [Compound I-50, 7-(cyclopropanecarboxamido)-N-methyl-2-(3-(2-methyl-2H-tetrazol-5-yl)phenyl)-1H-pyrrolo[2,3-c]pyridine-4-carboxamide] here?
The Kd was 0.2 to 1 nM.

With `CNC(=O)c1cnc(NC(=O)C2CC2)c2[nH]c(-c3ncc(C(=O)N(C)C)cc3F)cc12` [Compound I-51, 7-(cyclopropanecarboxamido)-2-(5-(dimethylcarbamoyl)-3-fluoropyridin-2-yl)-N-methyl-1H-pyrrolo[2,3-c]pyridine-4-carboxamide] as the molecule, how does the Kd read?
The Kd was 0.2 to 1 nM.

How did the Kd turn out when `CNC(=O)c1cnc(NC(=O)C2CC2)c2[nH]c(-c3ccc(C(=O)N4CC(F)(F)C4)cn3)cc12` [Compound I-53, 7-(cyclopropanecarboxamido)-2-(5-(3,3-difluoroazetidine-1-carbonyl)pyridin-2-yl)-N-methyl-1H-pyrrolo[2,3-c]pyridine-4-carboxamide] was run?
The Kd was 0.2 to 1 nM.

Which Kd does the source give for `CNC(=O)c1cnc(NC(=O)C2CC2)c2[nH]c(-c3ccc(-c4nccn4C)cc3OC3CC3)cc12` [Compound I-57, 7-(cyclopropanecarboxamido)-2-(2-cyclopropoxy-4-(1-methyl-1H-imidazol-2-yl)phenyl)-N-methyl-11H-pyrrolo[2,3-c]pyridine-4-carboxamide] here?
The Kd was 1 to 10 nM.

Which Kd does the source give for `CNC(=O)c1cnc(NC(=O)C2CC2)c2[nH]c(-c3ccc(-c4nccn4C)cc3F)cc12` [Compound I-58, 7-(cyclopropanecarboxamido)-2-(2-fluoro-4-(1-methyl-1H-imidazol-2-yl)phenyl)-N-methyl-11H-pyrrolo[2,3-c]pyridine-4-carboxamide] here?
Its Kd is less than 0.2 nM.

Which Kd does the source give for `CNC(=O)c1cnc(NC(=O)C2CC2)c2[nH]c(-c3cccc(-c4nnn(C)n4)c3OC)cc12` [Compound I-59, 7-(cyclopropanecarboxamido)-2-(2-methoxy-3-(2-methyl-2H-tetrazol-5-yl)phenyl)-N-methyl-1H-pyrrolo[2,3-c]pyridine-4-carboxamide] here?
Its Kd is 0.2 to 1 nM.

Which Kd does the source give for `CNC(=O)c1cnc(NC(=O)C2CC2)c2[nH]c(-c3ccc(-c4nccs4)cc3OC)cc12` [Compound I-60, 7-(cyclopropanecarboxamido)-2-(2-methoxy-4-(thiazol-2-yl)phenyl)-N-methyl-1H-pyrrolo[2,3-c]pyridine-4-carboxamide] here?
The Kd was less than 0.2 nM.

`CNC(=O)c1cnc(NC(=O)C2CC2)c2[nH]c(-c3ccc(C4COCCO4)cc3OC)cc12` (stereo not drawn) [Compound I-61, 2-(4-(1,4-dioxan-2-yl)-2-methoxyphenyl)-7-(cyclopropanecarboxamido)-N-methyl-1H-pyrrolo[2,3-c]pyridine-4-carboxamide] was tested. Which Kd did it give?
Its Kd is greater than 10 nM.

For `CNC(=O)c1cnc(NC(=O)C2CC2)c2[nH]c(-c3ccc(-c4nncn4C)cc3F)cc12` [Compound I-62, 7-(cyclopropanecarboxamido)-2-(2-fluoro-4-(4-methyl-4H-1,2,4-triazol-3-yl)phenyl)-N-methyl-1H-pyrrolo[2,3-c]pyridine-4-carboxamide], which Kd is on record?
Its Kd is less than 0.2 nM.

Which Kd does the source give for `CNC(=O)c1cnc(NC(=O)C2CC2)c2[nH]c(-c3cccc(-n4nccn4)c3F)cc12` [Compound I-63, 7-(cyclopropanecarboxamido)-2-(2-fluoro-3-(2H-1,2,3-triazol-2-yl)phenyl)-N-methyl-1H-pyrrolo[2,3-c]pyridine-4-carboxamide] here?
The Kd was 0.2 to 1 nM.

`CNC(=O)c1cnc(NC(=O)C2CC2)c2[nH]c(-c3ccc(-c4cn(C)nn4)cc3OC)cc12` [Compound I-64, 7-(cyclopropanecarboxamido)-2-(2-methoxy-4-(1-methyl-1H-1,2,3-triazol-4-yl)phenyl)-N-methyl-1H-pyrrolo[2,3-c]pyridine-4-carboxamide] was tested. Which Kd did it give?
Its Kd is greater than 10 nM.

How did the Kd turn out when `CNC(=O)c1cnc(NC(=O)C2CC2)c2[nH]c(-c3ccc(-n4ncnc4C)cc3F)cc12` [Compound I-65, 7-(cyclopropanecarboxamido)-2-(2-fluoro-4-(5-methyl-1H-1,2,4-triazol-1-yl)phenyl)-N-methyl-1H-pyrrolo[2,3-c]pyridine-4-carboxamide] was run?
Its Kd is less than 0.2 nM.

Which Kd does the source give for `CNC(=O)c1cnc(NC(=O)C2CC2)c2[nH]c(-c3ccc(-c4cnccn4)cc3F)cc12` [Compound I-66, 7-(cyclopropanecarboxamido)-2-(2-fluoro-4-(pyrazin-2-yl)phenyl)-N-methyl-1H-pyrrolo[2,3-c]pyridine-4-carboxamide] here?
Its Kd is less than 0.2 nM.

`CNC(=O)c1cnc(NC(=O)C2CC2)c2[nH]c(-c3cccc(-c4cn(C)c(C)n4)c3F)cc12` [Compound I-67] was tested. Which Kd did it give?
The Kd was less than 0.2 nM.

For `CNC(=O)c1cnc(NC(=O)C2CC2)c2[nH]c(-c3ccc(-c4ncc(C)n4C)cc3F)cc12` [Compound I-68, 7-(cyclopropanecarboxamido)-2-(4-(1,5-dimethyl-1H-imidazol-2-yl)-2-fluorophenyl)-N-methyl-1H-pyrrolo[2,3-c]pyridine-4-carboxamide], which Kd is on record?
Its Kd is less than 0.2 nM.
